The values that follow are results of earlier work, collected in PMC8198792, “Prediction of Anticancer Peptides with High Efficacy and Low Toxicity by Hybrid Model Based on 3D Structure of Peptides” (International Journal of Molecular Sciences, 2021).

The series relates to cancer cell lines. Also on record: method as in 6 sources, ref CancerPPD [45] and SATPdb ||| ref CancerPPD/SATPdb ||| ref CancerPPD, SATPdb, Swissprot (PDB) ||| ref CancerPPD/SATPdb/Swissprot(PDB) ||| ref CancerPPD / SATPdb ||| ... The note with it: cited from earlier work. An excerpt: Supplement ijms-22-05630-s001.zip/ACPs(seguence).xlsx, sheet "D1" | column: Activity || Supplement ijms-22-05630-s001.zip/ACPs(seguence).xlsx, sheet "D2" | column: Activity || Supplement ijms-22-05630-s001.zip/ACPs(seguence).xlsx, sheet "D3" | column: Activity || (+ 2 further places)

The mark [1] stands for this setting: ACPs dataset D1, 1 = ACP (positive), 0 = non-ACP (negative), label taken from databases, ref CancerPPD [45] and SATPdb.
Setting [2] is: ACPs dataset D4 (sheet "D4"), label 1 = ACP, experimentally validated ACPs, ref CancerPPD [45] and SATPdb.
[3] abbreviates: ACPs dataset D5 (sheet "D5"), label 1 = ACP (positive set), sequences with CancerPPD/SATPdb ID, ref CancerPPD, SATPdb.
The mark [4] stands for this setting: ACPs dataset sheet D2, 1 = ACP (CancerPPD/SATPdb ID), 0 = non-ACP (Swissprot/PDB ID), ref CancerPPD, SATPdb, Swissprot (PDB).
Setting [5] is: ACPs dataset D5 (sheet "D5"), label 1 = ACP (positive set), 0 = non-ACP (negative set), ref CancerPPD [45] and SATPdb.
Setting [6] is: ACPs dataset D3 (supplement sheet "D3"), 1 = ACP, 0 = non-ACP, ref CancerPPD [45] and SATPdb.
The mark [7] stands for this setting: ACPs dataset D4 (sheet "D4"), label 1 = ACP (CancerPPD ID), 0 = non-ACP (non-anticancer AMP, SATPdb ID), ref CancerPPD [45] and SATPdb.
Where [8] appears, read: ACPs dataset D1, label 1 = ACP, 0 = non-ACP (non-anticancer AMPs from SATPdb), ref CancerPPD/SATPdb.
Setting [9] is: ACPs dataset D4 (sheet "D4"), label 1 = ACP, 0 = non-ACP, ref CancerPPD / SATPdb.
The mark [10] stands for this setting: ACPs dataset D3 (sheet "D3"), label 1 = ACP, 0 = non-ACP, ref CancerPPD/SATPdb.
Setting [11] is: ACPs dataset D5, sheet "D5", label 1 = ACP, 0 = non-ACP, ref CancerPPD [45] and SATPdb.
The mark [12] stands for this setting: ACPs dataset D2 (supplement ACPs(seguence).xlsx, sheet D2), dataset label 1/0 (ACP / non-ACP), entries identified by Swissprot(PDB ID), ref CancerPPD/SATPdb/Swissprot(PDB).

Like-named read-outs stand apart in the source and are kept apart here.

In the case of KRRREKQRPCDKPRR [satpdb15198], the Activity reads like this: under setting [1], 1; under setting [2], 1; under setting [3], 1; under setting [4], 1.

As for “GIACGESCVFLGCFIPGCSCKSKVCYFN [compound 4397]”, the Activity was 1 under setting [1], 1 under setting [2], 1 under setting [3] and 1 under setting [4].

Consider GCVLYPWC [2M6C NMR - A 1-8], for which the Activity by setting is: under setting [5], 0; under setting [4], 0.

For GLFDVIAKVASVIKKL [compound 4093], the Activity was 1 under setting [6], 1 under setting [7] and 1 under setting [5].

KILRGVAKKIMRTFLRRILTGKK [compound 3321]: the Activity was 1 under setting [6], 1 under setting [7] and 1 under setting [5].

Turning to “GIPCGESCVYIPCLTSAIGCSCKSKVCYRN [satpdb13250]”, the Activity by setting is: under setting [8], 0; under setting [9], 0.

As for NHFTLKCPKTALTEPPTLAY [compound 3362], the Activity under setting [1] is 1, the Activity under setting [2] is 1, the Activity under setting [3] is given as 1 and the Activity under setting [4] is 1.

On to “RLYRRLYRRLYRRLYRRLYRRLYRRLYRRLYRKKKKKKK [satpdb14208]”, for which the Activity is, setting by setting: under setting [10], 0; under setting [9], 0; under setting [11], 0.

With “KKVCACPKILKPVCGSDGRTYANSCIARCNGVSIKSEGSCPTGILN [1LDT X-ray 1.90,L,1-46]”, the Activity is on record as 0 under setting [12] and 0 under setting [5].

On to ILPWKWPWWPWRR [compound 1827], for which the Activity is, setting by setting: under setting [1], 1; under setting [2], 1; under setting [3], 1; under setting [4], 1.

On to PEWFKCRRWQWRMKKLGA [compound 1604], for which the Activity runs as follows: under setting [1], 1; under setting [2], 1; under setting [3], 1; under setting [4], 1.

Regarding “GRVPYPRGGLLkLLKklLKKLlKL [compound 3587]”, the Activity was 1 under setting [6], 1 under setting [7] and 1 under setting [5].

For the substance TEWSVCNSRCGRGYQKRTR [satpdb19902], the Activity reads like this: under setting [1], 1; under setting [2], 1; under setting [3], 1; under setting [4], 1.

Take “ALLGDFFRKSKEKIGKEFKRIVQRIKDFLRNLVPRTES [satpdb12863]”: the Activity under setting [8] is recorded as 0 and the Activity under setting [9] is given as 0.

In the case of “KRGFGKKLRKRLKKFRNSIKKRLKNFNVVIPIPLPG [satpdb11105]”, the Activity by setting is: under setting [1], 0; under setting [7], 0.

SSSGWLCTLTIECGTIICACR [satpdb10412]: the Activity under setting [1] is recorded as 0 and the Activity under setting [7] is recorded as 0.

For the substance GLFKVIKKVASVIGGL [compound 4147], the Activity is 1 under setting [6], 1 under setting [7] and 1 under setting [5].

Turning to PRAWEYWLRLME [compound 4582], the Activity by setting is: under setting [1], 1; under setting [2], 1; under setting [3], 1; under setting [4], 1.

Take “GVPICGETCTLGTCYTAGCSCSWPVCTRN [compound 4421]”: the Activity was 1 under setting [1], 1 under setting [2], 1 under setting [3] and 1 under setting [4].

Regarding “MVEPLLSGIVLGLIVVTLAGLFYAAYKQYKRPNELGG [4OGQ X-ray 2.50,G,1-37]”, the Activity is, setting by setting: under setting [12], 0; under setting [5], 0.

For the substance KCGHKHQCAVHN [satpdb17767], the Activity reads like this: under setting [1], 1; under setting [2], 1; under setting [3], 1; under setting [4], 1.

On to KWFKKIPKFLHLLKKF [compound 1120], for which the Activity was 1 under setting [6], 1 under setting [7] and 1 under setting [5].

As to “KWKSFLKTFKSlKKTVLHTLLKAISS [compound 3769]”, the Activity reads like this: under setting [6], 1; under setting [7], 1; under setting [5], 1.

For “KKWGWLAWVDPAYEFIKGFGKGAIKEGNKDKWKNI [2JPK NMR - A 1-35]”, the Activity was 0 under setting [12] and 0 under setting [5].

Take DGRKICLDPDAPRIKKIVQKKL [satpdb12249]: the Activity was 1 under setting [1], 1 under setting [2], 1 under setting [3] and 1 under setting [4].

With “rrrrrrrrGEDIIRNIARHLAQVGDSMDR [compound 4227]”, the Activity under setting [6] was 1, the Activity under setting [7] is recorded as 1 and the Activity under setting [5] is on record as 1.

Consider “MKVRVDADACIGCGVCENLCPDVFQLGDDGKAKVLQPETDLPCAKDAADSCPTGAISVEE [1VJW X-ray 1.75 A 1-60]”, for which the Activity reads like this: under setting [12], 0; under setting [11], 0.

With “FLSLIPHAIN AVSAIAKHN [2JQ0 NMR - A 1-19]”, the Activity under setting [5] is given as 0 and the Activity under setting [4] is listed as 0.

Take “SCASRCKGHCRARRCGYYVSVLYRGRCYCKCLRC [2EEM NMR - A 1-34]”: the Activity was 0 under setting [5] and 0 under setting [4].

With “ITIPPIIKDTLKKFFKGGIAGVMGKSQ [satpdb11170]”, the Activity is on record as 0 under setting [1] and 0 under setting [7].

As to KWCFCVCYRGICYCRCRG [satpdb12871], the Activity reads like this: under setting [8], 0; under setting [9], 0.

As to FFHHIFRGIVHVGKTIHRLVTG [compound 4437], the Activity was 1 under setting [1], 1 under setting [2], 1 under setting [3] and 1 under setting [4].

For MLQNSAVLLLLVISASA [satpdb10067], the Activity is on record as 1 under setting [1], 1 under setting [2], 1 under setting [3] and 1 under setting [4].

As for “kWkSFLkTFkSLKkTVLHTLLkAISS [compound 1231]”, the Activity under setting [6] is reported as 1, the Activity under setting [7] was 1 and the Activity under setting [5] is 1.

As for SSTSPHRPRFS [satpdb14979], the Activity under setting [1] is 1, the Activity under setting [2] was 1, the Activity under setting [3] was 1 and the Activity under setting [4] is 1.

For PAWRKARRWARRMKKLAA [compound 1618], the Activity by setting is: under setting [1], 1; under setting [2], 1; under setting [3], 1; under setting [4], 1.

On to “GGLKKLGKKLEGVGKRVFKASEKALPVLTGYKAIG [satpdb10158]”, for which the Activity by setting is: under setting [1], 0; under setting [7], 0.

In the case of KWKKLLKKPLKLLKKLL [satpdb14017], the Activity under setting [10] is on record as 0, the Activity under setting [9] is listed as 0 and the Activity under setting [11] is reported as 0.

For GPWGPCSGSCGPGRRLRRR [satpdb14705], the Activity was 1 under setting [1], 1 under setting [2], 1 under setting [3] and 1 under setting [4].

Take “SVLGTVKDLLIGAGKSAAQSVLTANSCKLSNSC [satpdb10581]”: the Activity is 0 under setting [1] and 0 under setting [7].

Take KKLLKWLKKLL [satpdb14598]: the Activity is on record as 0 under setting [10], 0 under setting [9] and 0 under setting [11].

As for “LHCPALVTYNTDTFESMPNPEGRYTFGASCV [satpdb27573]”, the Activity by setting is: under setting [1], 1; under setting [2], 1; under setting [3], 1; under setting [4], 1.

Consider “ATCDLLSPFKVGHAACAAHCIARGKRGGWCDKRAVCNCRK [satpdb11323]”, for which the Activity by setting is: under setting [1], 0; under setting [7], 0.

For SYSMEHFRWGKPV [2IQP model - B 1-13], the Activity runs as follows: under setting [5], 0; under setting [4], 0.

Consider KLLKKLLKWLK [satpdb13967], for which the Activity under setting [10] was 0, the Activity under setting [9] was 0 and the Activity under setting [11] is on record as 0.

With “ALSKALSKALSKALSKALSKALSK [compound 1357]”, the Activity is given as 1 under setting [6], 1 under setting [2] and 1 under setting [3].
